# Measured values: ChEMBL document CHEMBL1201862, “PubChem BioAssay data set” (2004)
# Active and inactive are the calls of the source.
# Legend:
# [1] = viability loss in MITF-independent A375 cells – cell-based, CellTiter-Glo luminescence, dry powder, set 2, counter-screen for MITF inhibitor project, dose response (AID 624489); assay type: functional; settings: A-375;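 note: actives are compounds lowering A375 viability meaning general cytotoxicity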
# [2] = target: T1, Replicative DNA helicase DnaB (Mycobacterium tuberculosis, UniProt P9WMR3); experiment: DnaB intein splicing inhibitors, dose response, biochemical, cell-free fluorescence (AID 449749); assay type: functional
# T1 sequence (P9WMR3 whole entry): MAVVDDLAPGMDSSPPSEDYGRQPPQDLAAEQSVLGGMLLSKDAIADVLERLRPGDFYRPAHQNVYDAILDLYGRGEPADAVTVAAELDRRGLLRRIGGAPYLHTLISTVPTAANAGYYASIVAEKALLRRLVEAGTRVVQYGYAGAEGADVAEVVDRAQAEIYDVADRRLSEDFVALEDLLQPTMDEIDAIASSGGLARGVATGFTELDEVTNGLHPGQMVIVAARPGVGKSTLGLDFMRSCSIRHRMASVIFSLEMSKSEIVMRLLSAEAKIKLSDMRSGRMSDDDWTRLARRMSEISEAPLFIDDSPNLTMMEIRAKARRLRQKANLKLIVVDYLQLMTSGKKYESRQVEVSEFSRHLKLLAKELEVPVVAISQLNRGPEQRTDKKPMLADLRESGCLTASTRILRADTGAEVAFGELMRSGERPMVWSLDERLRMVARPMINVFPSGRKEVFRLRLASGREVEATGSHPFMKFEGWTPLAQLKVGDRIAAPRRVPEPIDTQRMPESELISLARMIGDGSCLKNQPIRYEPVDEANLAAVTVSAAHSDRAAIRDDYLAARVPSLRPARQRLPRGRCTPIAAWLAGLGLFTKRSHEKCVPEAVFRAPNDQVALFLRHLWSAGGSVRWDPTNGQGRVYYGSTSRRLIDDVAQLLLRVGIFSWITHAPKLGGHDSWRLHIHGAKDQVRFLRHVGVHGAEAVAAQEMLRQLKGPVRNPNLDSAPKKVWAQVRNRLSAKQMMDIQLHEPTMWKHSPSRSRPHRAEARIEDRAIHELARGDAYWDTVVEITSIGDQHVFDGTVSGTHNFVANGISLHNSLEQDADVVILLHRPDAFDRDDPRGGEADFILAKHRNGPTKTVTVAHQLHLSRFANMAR
# [3] = target: T2, Apoptotic protease-activating factor 1 (Homo sapiens, UniProt O14727); assay type: functional
# T2 sequence (O14727 whole entry): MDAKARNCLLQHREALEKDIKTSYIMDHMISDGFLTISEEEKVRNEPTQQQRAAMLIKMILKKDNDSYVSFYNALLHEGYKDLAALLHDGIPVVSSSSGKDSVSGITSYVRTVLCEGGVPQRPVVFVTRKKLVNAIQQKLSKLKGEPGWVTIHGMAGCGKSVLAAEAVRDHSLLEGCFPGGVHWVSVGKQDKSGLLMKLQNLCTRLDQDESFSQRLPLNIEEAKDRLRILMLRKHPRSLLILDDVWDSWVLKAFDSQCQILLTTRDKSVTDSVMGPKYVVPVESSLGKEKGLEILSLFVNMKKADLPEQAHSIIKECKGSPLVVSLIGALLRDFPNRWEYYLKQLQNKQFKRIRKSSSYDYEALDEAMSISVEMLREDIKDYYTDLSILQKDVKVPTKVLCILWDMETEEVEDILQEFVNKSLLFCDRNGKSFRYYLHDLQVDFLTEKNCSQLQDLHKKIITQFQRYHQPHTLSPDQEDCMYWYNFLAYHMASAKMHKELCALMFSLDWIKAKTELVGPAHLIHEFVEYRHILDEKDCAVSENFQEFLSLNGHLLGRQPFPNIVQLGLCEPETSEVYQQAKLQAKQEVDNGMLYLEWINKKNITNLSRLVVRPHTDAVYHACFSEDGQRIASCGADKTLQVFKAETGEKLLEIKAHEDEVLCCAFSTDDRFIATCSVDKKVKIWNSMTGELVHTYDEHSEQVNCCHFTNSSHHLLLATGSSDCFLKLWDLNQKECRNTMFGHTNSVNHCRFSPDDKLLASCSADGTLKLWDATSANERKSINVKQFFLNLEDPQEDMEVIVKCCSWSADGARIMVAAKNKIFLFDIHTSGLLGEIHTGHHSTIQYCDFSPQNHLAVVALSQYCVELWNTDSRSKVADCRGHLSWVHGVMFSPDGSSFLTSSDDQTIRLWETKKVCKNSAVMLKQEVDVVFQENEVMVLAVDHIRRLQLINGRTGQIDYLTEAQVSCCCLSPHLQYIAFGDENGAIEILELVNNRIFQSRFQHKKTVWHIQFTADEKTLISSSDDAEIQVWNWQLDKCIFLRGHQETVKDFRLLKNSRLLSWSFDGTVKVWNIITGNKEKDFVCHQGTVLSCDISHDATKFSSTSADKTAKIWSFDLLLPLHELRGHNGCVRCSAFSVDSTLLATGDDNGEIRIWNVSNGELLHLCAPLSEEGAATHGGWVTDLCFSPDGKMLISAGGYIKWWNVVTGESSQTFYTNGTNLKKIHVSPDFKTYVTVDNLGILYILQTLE
# Protein RecA = target: T3, Protein RecA (Mycobacterium tuberculosis, UniProt P9WHJ3); experiment: Fluorescence Cell-Free Homogeneous Dose Retest to Identify Inhibitors of RecA-Intein Splicing Activity. [Related pubchem assays (depositor defined):AID2097, AID2223, AID489010, AID492950]; assay type: functional
# T3 sequence (P9WHJ3 whole entry): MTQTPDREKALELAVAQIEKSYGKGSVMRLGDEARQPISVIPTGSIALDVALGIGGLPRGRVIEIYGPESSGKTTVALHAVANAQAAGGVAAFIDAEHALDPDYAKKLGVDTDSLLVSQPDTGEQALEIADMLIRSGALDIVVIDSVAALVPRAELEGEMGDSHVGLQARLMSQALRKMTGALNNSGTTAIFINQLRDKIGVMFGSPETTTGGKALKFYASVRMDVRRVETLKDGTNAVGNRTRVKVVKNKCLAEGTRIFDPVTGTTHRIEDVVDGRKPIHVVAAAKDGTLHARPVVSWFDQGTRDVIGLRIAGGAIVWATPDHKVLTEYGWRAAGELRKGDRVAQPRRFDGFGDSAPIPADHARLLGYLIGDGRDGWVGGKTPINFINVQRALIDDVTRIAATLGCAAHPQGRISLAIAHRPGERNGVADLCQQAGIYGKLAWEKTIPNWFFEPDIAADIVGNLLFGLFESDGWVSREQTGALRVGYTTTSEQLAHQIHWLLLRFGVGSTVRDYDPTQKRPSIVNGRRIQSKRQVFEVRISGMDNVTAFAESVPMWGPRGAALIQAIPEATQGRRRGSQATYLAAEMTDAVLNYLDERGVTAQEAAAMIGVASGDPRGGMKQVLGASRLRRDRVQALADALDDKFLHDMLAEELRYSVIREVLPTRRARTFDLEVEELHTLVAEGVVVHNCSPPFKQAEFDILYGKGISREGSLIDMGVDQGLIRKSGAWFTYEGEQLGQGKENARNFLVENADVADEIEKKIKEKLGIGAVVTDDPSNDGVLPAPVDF
# [4] = target: Tyrosyl-DNA phosphodiesterase 2 (Homo sapiens, UniProt O95551); experiment: potency against TDP2 phosphodiesterase activity – biochemical, epi absorbance, IC50, dose response (AID 743297)
# [5] = reduction of Shn3 3'UTR-driven luciferase in osteoblasts – cell-based, Clone20 osteoblasts, firefly luciferase, cherry-picked, dose response (AID 624132); assay type: functional;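 note: firefly luciferase luminescence from reporter carrying the Shn3 3'UTR in osteoblasts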
# [6] = loss of viability in HepG2 cells – cell-based, CellTiter-Glo, cherry-picked, cytotoxicity control for Shn3 inhibitor project, dose response (AID 624134); assay type: functional
# [7] = non-specific 3'UTR reporter inhibition in Clone20-Shn3RL – cell-based, Renilla luciferase, cherry-picked, counter-screen for Shn3 inhibitor project, dose response (AID 624133); assay type: functional
# [8] = Shn3 3'UTR reporter signal decrease – cell-based, Clone20 osteoblasts, firefly luciferase, cherry-pick, set 2, Schnurri-3 inhibitor project, dose response (AID 720490); assay type: functional;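 note: actives lower the luminescence signal as inhibitors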
# Caspase-6 = Caspase-6 (Homo sapiens, UniProt P55212); experiment: inhibition of CASP6 peptide cleavage – biochemical, VEID-R110 fluorescence, cherry-pick, dose response (AID 720632)
# Caspase-7 = Caspase-7 (Homo sapiens, UniProt P55210); experiment: caspase-7 enzyme inhibition, selectivity check – biochemical, DEVD-R110 fluorescence, cherry-pick, selectivity assay for caspase-6 inhibitor project, dose response (AID 743295); assay type: functional
# [9] = target: Induced myeloid leukemia cell differentiation protein Mcl-1 (Homo sapiens, UniProt Q07820); assay type: functional
# ORF 73 = ORF 73 (Human herpesvirus 8, UniProt O40947); experiment: KSHV LANA DNA-binding disruption – biochemical, fluorescence polarization, cherry-picked samples, dose response (AID 504725); set-up: species or system Human gammaherpesvirus 8;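 note: fluorescence polarization of a labeled DNA duplex reporting LANA DNA binding; potency is for inhibitors that block LANA binding to the DNA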
# [10] = target: Intestinal-type alkaline phosphatase (Mus musculus, UniProt P24822); experiment: PubChem AID 488785; assay type: functional
# [11] = target: T4, Alkaline phosphatase, tissue-nonspecific isozyme (Homo sapiens, UniProt P05186); experiment: TNAP enzyme inhibition by screening hits, dose response, selectivity assay for mouse IAP inhibitor project, biochemical, human TNAP, uHTS hits (AID 488906); assay type: functional
# T4 sequence (P05186 whole entry): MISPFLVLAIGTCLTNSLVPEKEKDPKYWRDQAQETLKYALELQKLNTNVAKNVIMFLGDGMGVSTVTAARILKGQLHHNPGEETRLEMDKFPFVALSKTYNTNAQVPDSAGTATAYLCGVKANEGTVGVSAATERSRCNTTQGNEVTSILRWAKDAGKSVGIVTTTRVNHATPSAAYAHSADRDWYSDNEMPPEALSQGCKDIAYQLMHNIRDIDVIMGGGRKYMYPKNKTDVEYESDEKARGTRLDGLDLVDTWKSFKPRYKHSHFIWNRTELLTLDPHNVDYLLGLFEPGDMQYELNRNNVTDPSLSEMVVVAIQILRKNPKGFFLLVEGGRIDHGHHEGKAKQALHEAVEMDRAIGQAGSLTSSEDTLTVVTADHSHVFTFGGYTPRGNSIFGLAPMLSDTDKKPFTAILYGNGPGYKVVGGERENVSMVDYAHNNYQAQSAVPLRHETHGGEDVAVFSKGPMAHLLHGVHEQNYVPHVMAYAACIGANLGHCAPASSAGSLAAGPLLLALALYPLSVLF
# [12] = target: Intestinal-type alkaline phosphatase (Homo sapiens, UniProt P09923); experiment: inhibition of human intestinal alkaline phosphatase – biochemical, dose response (AID 488876); assay type: functional
# [13] = target: Histone-lysine N-methyltransferase NSD2 (Homo sapiens, UniProt O96028); assay type: biochemical
# [14] = target: 1-phosphatidylinositol 4,5-bisphosphate phosphodiesterase gamma-1 (Homo sapiens, UniProt P19174); experiment: Counterscreen for inhibitors of phospholipase C isozymes (PLC-B3): Fluorescence-based biochemical high throughput dose response assay to identify inhibitors of phospholipase C isozymes (PLC-gamma1).
# [15] = target: 1-phosphatidylinositol 4,5-bisphosphate phosphodiesterase beta-3 (Homo sapiens, UniProt Q01970); experiment: Fluorescence-based biochemical high throughput dose response assay to identify inhibitors of phospholipase C isozymes (PLC-B3).
# [16] = HEK293T viability loss – cell-based, ATP luminescence, dry powder, Set6, cytotoxicity control, dose response (AID 743142); assay type: functional; settings: HEK293
# [17] = viability loss in A549 lung cancer cells – cell-based, CellTiter-Glo luminescence, dry powder, set 3, cytotoxicity control, dose response (AID 743146); assay type: functional
# [18] = liver cell line viability loss – HepG2, luminescence plate reader, powder samples, set 2, cytotoxicity control, dose response (AID 651860); assay type: functional, cell-based
# [19] = CTGF mRNA reduction in DLD1 cells – cell-based, DLD1 colon cancer, RT-qPCR, cherry-pick, dose response (AID 1053122); assay type: functional; settings: Cancer cell lines
# [20] = mouse embryonic fibroblast toxicity – cell-based, plate reader, dry powder, set 2, cytotoxicity control, dose response (AID 652280); assay type: functional; settings: NIH3T3
# [21] = T. cruzi growth inhibition in host cells, dose response, cell-based, plate reader, dry powder, set 2 (AID 652275); assay type: functional
# Chain of Induced myeloid leukemia cell differentiation protein Mcl-1 (Q07820 whole entry): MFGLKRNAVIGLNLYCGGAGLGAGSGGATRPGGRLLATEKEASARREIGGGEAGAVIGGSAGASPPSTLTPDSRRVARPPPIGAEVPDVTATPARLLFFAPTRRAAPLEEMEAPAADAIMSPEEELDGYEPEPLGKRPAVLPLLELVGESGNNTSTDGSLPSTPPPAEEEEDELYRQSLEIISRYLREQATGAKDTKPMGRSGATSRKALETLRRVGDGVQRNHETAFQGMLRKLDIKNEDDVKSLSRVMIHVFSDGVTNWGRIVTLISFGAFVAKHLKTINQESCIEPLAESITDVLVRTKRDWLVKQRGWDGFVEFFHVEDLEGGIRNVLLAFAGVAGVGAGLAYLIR
# Chain of Tyrosyl-DNA phosphodiesterase 2 (O95551 whole entry): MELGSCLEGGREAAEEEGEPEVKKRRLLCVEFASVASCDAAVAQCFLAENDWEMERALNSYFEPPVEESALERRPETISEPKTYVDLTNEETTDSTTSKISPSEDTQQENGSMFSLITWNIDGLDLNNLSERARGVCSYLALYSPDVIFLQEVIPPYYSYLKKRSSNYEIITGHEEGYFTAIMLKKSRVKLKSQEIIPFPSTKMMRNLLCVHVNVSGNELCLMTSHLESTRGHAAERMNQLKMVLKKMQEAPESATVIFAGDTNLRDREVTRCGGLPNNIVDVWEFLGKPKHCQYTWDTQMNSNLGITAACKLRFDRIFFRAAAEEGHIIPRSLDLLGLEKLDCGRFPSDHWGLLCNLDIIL
# Chain of Caspase-7 (P55210 24-198 limits assumed): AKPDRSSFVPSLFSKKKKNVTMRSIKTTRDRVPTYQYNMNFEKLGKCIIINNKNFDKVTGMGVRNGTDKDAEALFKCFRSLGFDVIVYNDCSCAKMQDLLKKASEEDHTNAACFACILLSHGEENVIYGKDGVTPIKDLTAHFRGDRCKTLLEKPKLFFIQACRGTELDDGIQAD
# Chain of Caspase-7 (P55210 207-303 limits assumed): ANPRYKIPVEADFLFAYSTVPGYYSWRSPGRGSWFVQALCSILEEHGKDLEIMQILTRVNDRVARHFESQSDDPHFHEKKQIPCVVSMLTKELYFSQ
# Chain of Histone-lysine N-methyltransferase NSD2 (O96028 whole entry): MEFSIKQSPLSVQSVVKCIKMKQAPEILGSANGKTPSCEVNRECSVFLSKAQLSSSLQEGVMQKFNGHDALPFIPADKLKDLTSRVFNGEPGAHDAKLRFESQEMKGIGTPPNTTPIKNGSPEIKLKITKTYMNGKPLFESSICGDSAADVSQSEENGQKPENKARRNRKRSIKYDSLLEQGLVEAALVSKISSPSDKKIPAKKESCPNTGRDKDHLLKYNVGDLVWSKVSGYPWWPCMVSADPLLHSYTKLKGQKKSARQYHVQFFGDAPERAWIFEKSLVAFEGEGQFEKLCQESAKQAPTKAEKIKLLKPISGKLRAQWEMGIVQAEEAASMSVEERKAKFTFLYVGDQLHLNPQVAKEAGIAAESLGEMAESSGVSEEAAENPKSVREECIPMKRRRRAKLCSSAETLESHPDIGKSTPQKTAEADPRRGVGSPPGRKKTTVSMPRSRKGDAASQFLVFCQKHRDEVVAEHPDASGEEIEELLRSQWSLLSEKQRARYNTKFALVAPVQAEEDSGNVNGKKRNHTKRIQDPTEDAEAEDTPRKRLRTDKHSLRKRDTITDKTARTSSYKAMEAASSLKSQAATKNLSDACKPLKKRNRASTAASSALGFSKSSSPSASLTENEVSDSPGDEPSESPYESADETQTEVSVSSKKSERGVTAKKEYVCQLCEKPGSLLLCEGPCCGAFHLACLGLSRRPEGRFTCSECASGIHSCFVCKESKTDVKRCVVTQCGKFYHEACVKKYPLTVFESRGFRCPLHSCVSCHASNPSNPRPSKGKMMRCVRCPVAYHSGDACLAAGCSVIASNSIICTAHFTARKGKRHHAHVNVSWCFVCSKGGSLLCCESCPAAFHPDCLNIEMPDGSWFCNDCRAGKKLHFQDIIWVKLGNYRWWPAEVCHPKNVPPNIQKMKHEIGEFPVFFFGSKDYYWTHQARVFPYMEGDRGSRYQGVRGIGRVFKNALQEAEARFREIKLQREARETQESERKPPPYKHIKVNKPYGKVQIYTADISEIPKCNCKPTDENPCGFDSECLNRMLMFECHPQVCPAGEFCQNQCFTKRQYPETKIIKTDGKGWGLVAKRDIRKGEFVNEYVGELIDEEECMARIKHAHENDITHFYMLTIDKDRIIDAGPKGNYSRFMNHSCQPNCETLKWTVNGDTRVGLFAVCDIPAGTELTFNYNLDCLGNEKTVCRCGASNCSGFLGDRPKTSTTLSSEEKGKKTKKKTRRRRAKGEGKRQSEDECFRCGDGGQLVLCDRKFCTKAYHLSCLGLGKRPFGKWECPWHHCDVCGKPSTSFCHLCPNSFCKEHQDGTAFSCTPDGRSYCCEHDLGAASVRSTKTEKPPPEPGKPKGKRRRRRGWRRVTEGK
# Chain of 1-phosphatidylinositol 4,5-bisphosphate phosphodiesterase beta-3 (Q01970 whole entry): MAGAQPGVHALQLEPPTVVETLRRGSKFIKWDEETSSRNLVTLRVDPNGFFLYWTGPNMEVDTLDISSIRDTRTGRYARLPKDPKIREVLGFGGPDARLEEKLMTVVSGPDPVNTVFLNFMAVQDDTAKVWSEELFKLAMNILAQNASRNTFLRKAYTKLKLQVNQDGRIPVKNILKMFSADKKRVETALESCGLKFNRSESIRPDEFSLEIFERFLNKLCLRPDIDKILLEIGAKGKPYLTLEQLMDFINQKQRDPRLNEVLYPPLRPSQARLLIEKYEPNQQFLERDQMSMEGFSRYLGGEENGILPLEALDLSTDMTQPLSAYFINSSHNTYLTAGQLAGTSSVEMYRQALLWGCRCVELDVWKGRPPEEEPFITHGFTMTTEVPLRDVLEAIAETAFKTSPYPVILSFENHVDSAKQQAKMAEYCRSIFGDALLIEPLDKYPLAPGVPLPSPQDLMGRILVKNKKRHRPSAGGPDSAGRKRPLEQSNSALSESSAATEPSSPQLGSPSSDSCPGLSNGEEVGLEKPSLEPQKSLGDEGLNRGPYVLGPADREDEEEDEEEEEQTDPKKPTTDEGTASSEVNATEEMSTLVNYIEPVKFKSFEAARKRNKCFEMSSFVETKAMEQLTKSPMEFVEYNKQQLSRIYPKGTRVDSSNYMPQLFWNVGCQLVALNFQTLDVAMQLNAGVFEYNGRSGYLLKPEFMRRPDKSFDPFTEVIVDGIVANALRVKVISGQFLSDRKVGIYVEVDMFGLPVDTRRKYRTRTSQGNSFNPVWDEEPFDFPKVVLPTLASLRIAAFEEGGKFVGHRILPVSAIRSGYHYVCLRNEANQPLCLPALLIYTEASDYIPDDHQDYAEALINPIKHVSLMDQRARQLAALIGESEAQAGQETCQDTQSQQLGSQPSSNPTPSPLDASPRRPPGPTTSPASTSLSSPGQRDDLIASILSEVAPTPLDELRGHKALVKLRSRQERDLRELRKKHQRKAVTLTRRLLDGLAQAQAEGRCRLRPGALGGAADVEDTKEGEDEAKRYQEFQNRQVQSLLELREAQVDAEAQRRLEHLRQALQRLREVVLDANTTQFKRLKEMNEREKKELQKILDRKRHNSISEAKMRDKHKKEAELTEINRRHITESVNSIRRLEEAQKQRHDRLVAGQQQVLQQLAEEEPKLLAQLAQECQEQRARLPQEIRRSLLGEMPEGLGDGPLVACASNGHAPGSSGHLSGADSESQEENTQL
# Chain of Intestinal-type alkaline phosphatase (Mus musculus, UniProt P24822) (P24822 whole entry): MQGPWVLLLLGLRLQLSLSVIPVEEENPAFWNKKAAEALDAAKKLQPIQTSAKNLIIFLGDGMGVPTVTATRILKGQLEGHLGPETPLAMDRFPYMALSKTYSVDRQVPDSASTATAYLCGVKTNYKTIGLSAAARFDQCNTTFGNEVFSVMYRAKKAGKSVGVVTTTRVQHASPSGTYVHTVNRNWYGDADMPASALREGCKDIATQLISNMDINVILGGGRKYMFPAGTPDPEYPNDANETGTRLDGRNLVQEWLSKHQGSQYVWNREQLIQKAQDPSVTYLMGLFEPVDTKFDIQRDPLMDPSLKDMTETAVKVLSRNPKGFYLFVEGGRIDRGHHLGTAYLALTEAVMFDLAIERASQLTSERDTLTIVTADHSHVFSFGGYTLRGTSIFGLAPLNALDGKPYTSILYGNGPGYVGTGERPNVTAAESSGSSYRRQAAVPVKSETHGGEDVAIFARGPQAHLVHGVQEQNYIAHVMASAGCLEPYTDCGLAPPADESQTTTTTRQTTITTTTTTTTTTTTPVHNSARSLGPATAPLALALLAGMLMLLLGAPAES
# Chain of Caspase-6 (P55212 24-179 limits assumed): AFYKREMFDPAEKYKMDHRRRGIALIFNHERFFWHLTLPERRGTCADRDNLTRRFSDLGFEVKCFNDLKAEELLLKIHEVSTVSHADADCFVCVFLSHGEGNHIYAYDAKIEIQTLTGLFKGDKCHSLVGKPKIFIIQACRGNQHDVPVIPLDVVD
# Chain of Caspase-6 (P55212 194-293 limits assumed): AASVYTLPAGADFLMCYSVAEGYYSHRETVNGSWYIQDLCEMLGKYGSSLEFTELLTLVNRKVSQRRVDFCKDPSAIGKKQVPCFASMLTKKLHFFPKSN
# Chain of Intestinal-type alkaline phosphatase (Homo sapiens, UniProt P09923) (P09923 whole entry): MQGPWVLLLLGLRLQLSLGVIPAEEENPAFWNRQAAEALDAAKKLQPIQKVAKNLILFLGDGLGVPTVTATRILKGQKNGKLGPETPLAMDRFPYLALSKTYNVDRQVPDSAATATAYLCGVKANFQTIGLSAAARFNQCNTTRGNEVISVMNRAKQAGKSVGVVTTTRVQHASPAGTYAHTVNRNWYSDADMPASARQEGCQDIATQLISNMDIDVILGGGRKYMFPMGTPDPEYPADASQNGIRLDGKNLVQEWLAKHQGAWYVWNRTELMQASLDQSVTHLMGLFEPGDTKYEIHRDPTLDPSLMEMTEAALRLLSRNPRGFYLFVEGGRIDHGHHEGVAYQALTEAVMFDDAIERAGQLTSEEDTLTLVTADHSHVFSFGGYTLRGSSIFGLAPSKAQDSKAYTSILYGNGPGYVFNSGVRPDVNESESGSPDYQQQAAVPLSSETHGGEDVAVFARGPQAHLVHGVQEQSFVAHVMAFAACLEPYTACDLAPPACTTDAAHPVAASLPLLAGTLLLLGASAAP
compound,measurement,setting,value
C=CCNC1=C(NCCCN2CCOCC2)C(=O)c2ccccc2C1=O,AC50,[1],> 70 µM (inactive)
Cc1ccc(C(C[N+](=O)[O-])c2c(C)[nH]n(-c3ccccc3)c2=O)cc1 (stereo not given),AC50,[2],3.52 µM (active)
same,IC50,[3],24.1 µM (active)
same,EC50,Protein RecA,3.16 µM (active)
same,IC50,[4],24.2 µM (inactive)
CCn1c(CNC(=O)c2cc(OC)c(OC)c(OC)c2)cc2cc(C)ccc21,AC50,[5],2.52 µM (active)
same,AC50,[6],> 70 µM (inactive)
same,AC50,[7],13.4 µM (active)
same,AC50,[8],3.79 µM (active)
O=C(O)CCc1ccc(-c2ccc(Br)cc2)n1CC(=O)O,AC50,Caspase-6,3.5 µM (active)
same,AC50,Caspase-7,> 70 µM (inactive)
O=C(O)CCCN1C(=O)/C(=C/C=C/c2ccco2)SC1=S,IC50,[9],19.3 µM (not active)
same,AC50,ORF 73,175 µM (active)
same,IC50,[10],1.4 µM (active)
same,IC50,[11],39.1 µM (active)
same,IC50,[12],> 100 µM (inactive)
same,AC50,[13],2.42 µM (active)
same,IC50,[14],> 122 µM (inactive)
same,IC50,[15],> 122 µM (inactive)
O=C(CCNC(=O)c1ccc(Cl)cc1)N[C@@H]1CCCc2ccccc21,AC50,[16],4.12 µM (active)
same,AC50,[17],> 52 µM (inactive)
O=C(O)[C@H]1CCCC[C@H]1C(=O)NC(CN1C(=O)c2ccccc2C1=O)c1ccccc1 (stereo not given in full),AC50,[18],> 52 µM (inactive)
C[C@@H]1CN([C@H](C)CO)S(=O)(=O)c2ccc(C#Cc3cccc(F)c3)cc2O[C@@H]1CN(C)S(=O)(=O)c1cn(C)cn1,AC50,[19],3.47 µM (active)
CC(C)(O)C#Cc1cccc(-c2nc(C(=O)NCc3ccc4c(c3)OCO4)cc3c2[C@@H](CCO)N([S+]([O-])C(C)(C)C)C3)c1 (stereo not given in full),AC50,[20],12.1 µM (active)
same,AC50,[21],3.93 µM (active)
